Earlier results as cited in patent publication US20020004528A1, “Method for the treatment of insomnia” (priority 1998, published 2002).

Conditions: one study mentioned in U.S. Pat. No. 5,510,381 (use of gabapentin to treat mania)

Question: With “1-(aminomethyl)-cyclohexane acetic acid [gabapentin]” as the substance, how does the “effect on delta-wave (deep) sleep” value read?
Answer: enhance delta-wave (deep) sleep
